Test results taken from ChEMBL document CHEMBL1136469, “Non-peptide alpha(v)beta(3) antagonists: identification of potent, chain-shortened RGD mimetics that incorporate a central pyrrolidinone constraint” (Bioorg Med Chem Lett, 2003).

How the values were obtained:
Integrin alpha-V/beta-3 = Integrin alpha-V/beta-3 (Homo sapiens, UniProt P05106+P06756)
Description: Displacement of [125I]-labeled nonpeptide from purified recombinant human alphaV-beta3 integrin

in vivo [1] = conditions: dog
Description: Half-life was measured in dog

in vivo [2] = conditions: dog, plasma
Description: Plasma clearance was measured in dog

in vivo [3] = conditions: dog, po
Description: Oral bioavailability in dog

physchem = conditions: octanol/water
Description: Partition coefficient (logP)

Chain of Integrin alpha-V/beta-3 (P05106 27-788 limits assumed): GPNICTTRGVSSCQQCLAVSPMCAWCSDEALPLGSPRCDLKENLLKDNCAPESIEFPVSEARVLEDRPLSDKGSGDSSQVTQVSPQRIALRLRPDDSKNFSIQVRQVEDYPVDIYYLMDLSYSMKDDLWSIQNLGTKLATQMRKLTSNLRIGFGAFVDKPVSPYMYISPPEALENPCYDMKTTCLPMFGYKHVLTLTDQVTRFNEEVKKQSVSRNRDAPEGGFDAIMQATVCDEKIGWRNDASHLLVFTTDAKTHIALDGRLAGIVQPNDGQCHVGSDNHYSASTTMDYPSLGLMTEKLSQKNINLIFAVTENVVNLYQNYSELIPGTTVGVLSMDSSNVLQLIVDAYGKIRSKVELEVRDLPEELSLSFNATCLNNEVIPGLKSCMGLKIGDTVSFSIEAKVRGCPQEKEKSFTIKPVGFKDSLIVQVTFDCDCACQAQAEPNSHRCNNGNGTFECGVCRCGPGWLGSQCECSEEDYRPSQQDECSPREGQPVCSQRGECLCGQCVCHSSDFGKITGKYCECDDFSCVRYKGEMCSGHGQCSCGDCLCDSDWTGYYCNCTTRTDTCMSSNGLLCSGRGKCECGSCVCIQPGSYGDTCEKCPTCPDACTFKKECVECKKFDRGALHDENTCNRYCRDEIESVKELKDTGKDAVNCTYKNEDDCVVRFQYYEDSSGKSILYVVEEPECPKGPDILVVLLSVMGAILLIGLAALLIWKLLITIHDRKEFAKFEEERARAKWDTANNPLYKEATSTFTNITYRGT
Chain of Integrin alpha-V/beta-3 (P06756 31-889 limits assumed): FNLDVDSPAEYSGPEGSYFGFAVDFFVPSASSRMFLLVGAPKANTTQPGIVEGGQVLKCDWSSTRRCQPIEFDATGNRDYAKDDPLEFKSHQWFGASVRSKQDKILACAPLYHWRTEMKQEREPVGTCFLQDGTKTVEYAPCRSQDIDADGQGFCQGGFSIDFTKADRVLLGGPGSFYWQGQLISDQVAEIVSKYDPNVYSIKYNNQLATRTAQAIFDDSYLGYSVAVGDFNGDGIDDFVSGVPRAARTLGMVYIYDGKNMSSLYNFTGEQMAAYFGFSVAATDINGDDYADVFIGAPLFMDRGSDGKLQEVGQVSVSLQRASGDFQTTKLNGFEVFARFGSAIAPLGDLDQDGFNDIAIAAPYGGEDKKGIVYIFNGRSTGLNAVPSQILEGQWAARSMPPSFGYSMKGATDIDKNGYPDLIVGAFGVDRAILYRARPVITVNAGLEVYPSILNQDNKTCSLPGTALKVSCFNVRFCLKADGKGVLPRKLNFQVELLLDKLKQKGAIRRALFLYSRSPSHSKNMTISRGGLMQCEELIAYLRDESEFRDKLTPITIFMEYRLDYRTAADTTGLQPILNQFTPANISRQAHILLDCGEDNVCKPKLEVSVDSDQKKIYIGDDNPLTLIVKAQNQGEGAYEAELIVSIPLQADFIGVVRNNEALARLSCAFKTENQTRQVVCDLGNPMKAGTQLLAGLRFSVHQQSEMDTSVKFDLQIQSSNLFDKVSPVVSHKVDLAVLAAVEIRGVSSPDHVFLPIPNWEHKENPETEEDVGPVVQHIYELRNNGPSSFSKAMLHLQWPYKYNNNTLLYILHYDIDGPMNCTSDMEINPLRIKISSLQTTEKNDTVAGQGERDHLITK
Chain of Integrin alpha-V/beta-3 (P06756 891-1048 limits assumed): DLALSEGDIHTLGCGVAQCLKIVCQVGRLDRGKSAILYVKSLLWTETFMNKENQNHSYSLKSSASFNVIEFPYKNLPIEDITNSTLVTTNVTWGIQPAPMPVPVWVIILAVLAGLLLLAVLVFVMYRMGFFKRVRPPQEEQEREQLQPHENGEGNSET

IC50 (Integrin alpha-V/beta-3) [nM] | half-life (in vivo [1]) [h] | clearance (in vivo [2]) [mL/min/kg] | bioavailability (in vivo [3]) [%] | logP (physchem) | SMILES
0.39 | 8 | 2.1 | 52 | 0.88 | O=C(O)C[C@@H](c1ccc2c(c1)OCC2)N1CC[C@@H](CCCc2ccc3c(n2)NCCC3)C1=O
 |  |  |  | 0.77 | O=C(O)C[C@H](NC(=O)CCCCc1ccc2c(n1)NCCC2)c1cnc2ccccc2c1
0.22 | 1.5 | 22.9 | 11.5 | -0.12 | O=C(O)C[C@@H](c1ccc2c(c1)OCC2)N1CC[C@H](CCCc2ccc3c(n2)NCCC3)C1=O
